For twelve compounds, IC50 and Ki results are on record in BindingDB's records for doi:10.1021/bi401077f (Weill Cornell Medical College, 2013).

For experiment [1], the target named is T1, Dihydrolipoyl dehydrogenase (Mycobacterium tuberculosis (strain CDC 1551 / Oshkosh), UniProt P9WHH8).
T1 sequence (P9WHH8 whole entry): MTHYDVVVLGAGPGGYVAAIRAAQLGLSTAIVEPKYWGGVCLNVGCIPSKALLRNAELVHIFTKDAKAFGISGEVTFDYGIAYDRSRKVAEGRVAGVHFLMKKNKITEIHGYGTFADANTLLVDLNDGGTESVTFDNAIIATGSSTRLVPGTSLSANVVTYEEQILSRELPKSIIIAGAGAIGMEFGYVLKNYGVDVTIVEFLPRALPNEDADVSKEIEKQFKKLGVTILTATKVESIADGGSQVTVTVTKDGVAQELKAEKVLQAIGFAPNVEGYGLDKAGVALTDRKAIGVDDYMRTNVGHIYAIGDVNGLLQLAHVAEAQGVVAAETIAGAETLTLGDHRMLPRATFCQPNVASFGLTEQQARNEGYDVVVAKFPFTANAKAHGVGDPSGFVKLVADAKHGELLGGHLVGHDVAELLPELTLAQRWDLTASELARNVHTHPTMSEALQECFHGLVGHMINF
The experiment is described as follows: Enzyme Assays.

In experiment [2] the target is T2, Dihydrolipoyl dehydrogenase (Mycobacterium tuberculosis (strain ATCC 25618 / H37Rv), UniProt P9WHH9).
T2 sequence (P9WHH9 whole entry): T1 sequence (P9WHH8 whole entry)
The experiment is described as follows: Enzyme Assays.

`CC(C)(C)NC(=O)C(=O)NCc1cccnc1` [4031-1995] displayed an IC50 in experiment [1] of 100 µM.
In experiment [1], `Nc1ncc(Br)cc1S(=O)(=O)NCCC(=O)Nc1cccc(Cl)c1` [K906-3123] yielded an IC50 of more than 100 µM.
Same read-out and setting: the figure for `CCCCNS(=O)(=O)c1cc(Br)cnc1N` [E138-2195] is more than 100 µM.
On the same count and under the same terms, the figure for `CN(Cc1ccccc1)C(=O)CN(C)S(=O)(=O)c1cc(Br)cnc1N` [E144-0828] is 34 µM.
The same measure, in the same setting: under `CCCCN(C)C(=O)CCNS(=O)(=O)c1cc(Br)cnc1N` [E199-0112] stands more than 100 µM; under `NC(=O)C(=O)NCc1cccnc1` [4031-0653], 6 µM; under `CC1CCCCC1NC(=O)CN(C)S(=O)(=O)c1cccc2cccnc12` (stereo not drawn) [N-(2-methylcyclohexyl)-2-[methyl(quinolin-8-ylsulfonyl)amino]acetamide], more than 100 µM.
In experiment [1], `CCN(Cc1ccccc1)C(=O)CN(C)S(=O)(=O)c1cc(Br)cnc1N` [E114-0951] displayed an IC50 of 12.5 µM.
On to `Cc1cc(NC(=O)CN(C)S(=O)(=O)c2cc(Br)cnc2N)ccc1Br` [K906-3584], for which, in experiment [1], the IC50 is less than 0.1 µM.
Turning to `CN(CC(=O)Nc1ccc(F)c(Cl)c1)S(=O)(=O)c1cc(Br)cnc1N` [SL418], the Ki in experiment [1] was determined as 0.143 µM; in experiment [2] it was 0.333 µM.
With `O=C(Nc1ccc(Br)cc1)C1CCC(S(=O)(=O)c2cccnc2)CC1` (stereo not drawn) [C324-0095], the IC50 in experiment [1] was more than 100 µM.
In experiment [1], `CN1CCN(S(=O)(=O)c2cc(Br)cnc2N)CC1` [E138-2099] returned an IC50 of more than 100 µM.

A word on the IC50: it is the concentration at which inhibition is half-maximal. The term Ki denotes the equilibrium dissociation constant of an inhibitor or competing ligand from its target. The low end stands for a stronger hold on the target, the high end for a looser hold on the target.
